Reference: patent US12351570B2 (MERCK PATENT GMBH, priority 2018, dated 2025)

Test system: MDA-MB-231 cells
Assay: Extracellular lactate production inhibition after 4 h, MDA-MB-231
Conditions: Homo sapiens, MDA-MB-231

IC50 [nM] | Structure (SMILES)
100 to 1000 | O=C(O)c1ccc(C#Cc2ccccc2NS(=O)(=O)c2ccc3c(c2)CCCC3)cc1 [Compound 7, 4-{2-[2-(5,6,7,8-tetrahydronaphthalene-2-sulfonamido)phenyl]ethynyl}benzoic acid]
1000 to 100000 | Cc1cccc(S(C)(=O)=Nc2ccccc2C#Cc2ccc(C(=O)O)nc2)c1 (centres unmarked) [Compound 435, 5-[2-(2-{[methyl(3-methylphenyl)oxo-λ6-sulfanylidene]amino}phenyl)ethynyl] pyridine-2-carboxylic acid]
10 to 100 | O=C(O)c1ccc(C#Cc2cc(Cl)ccc2NS(=O)(=O)c2cccc3cccnc23)cn1 [Compound 368, 5-{2-[5-chloro-2-(quinoline-8-sulfonamido)phenyl]ethynyl}pyridine-2-carboxylic acid]
1000 to 100000 | O=C(O)c1ncc(C#Cc2ccccc2NS(=O)(=O)c2cccc3c(Cl)ccnc23)cc1Cl [Compound 323, 3-chloro-5-{2-[2-(4-chloroquinoline-8-sulfonamido)phenyl]ethynyl}pyridine-2-carboxylic acid]
1000 to 100000 | Cc1ccc2nsnc2c1S(=O)(=O)Nc1ccccc1C#Cc1ccc(C(=O)O)nc1 [Compound 290, 5-{2-[2-(5-methyl-2,1,3-benzothia-diazole-4-sulfonamido)phenyl]-ethynyl}pyridine-2-carboxylic acid]
100 to 1000 | CN(c1ccccc1C#Cc1ccc(C(=O)O)cc1)S(=O)(=O)c1ccc2ccccc2c1 [Compound 4, 4-{2-[2-(N-methylnaphthalene-2-sulfonamido)phenyl]ethynyl}benzoic acid]
1000 to 100000 | Cc1ccc2cccc(S(=O)(=O)Nc3ccccc3C#Cc3cnc(C(=O)O)c4ccccc34)c2n1 [Compound 444, 4-{2-[2-(2-methylquinoline-8-sulfonamido)phenyl]ethynyl}iso-quinoline-1-carboxylic acid]
100 to 1000 | CCOc1ccc(NS(=O)(=O)c2cccc3cccnc23)c(C#Cc2ccc(C(=O)O)nc2)c1 [Compound 329, 5-[5-Ethoxy-2-(quinoline-8-sulfonylamino)-phenylethynyl]-pyridine-2-carboxylic acid]
1000 to 100000 | COc1ccc(S(=O)(=O)Nc2ccccc2C#Cc2ccc(C(=O)O)c(C#N)c2)c2ccccc12 [Compound 21, 2-cyano-4-{2-[2-(4-methoxynaphthalene-1-sulfonamido)phenyl]ethynyl}benzoic acid]
1 to 10 | COc1ccc(S(=O)(=O)Nc2ccc(I)cc2C#Cc2ccc(C(=O)O)nc2)c2ncccc12 [Compound 214, 5-{2-[5-iodo-2-(5-methoxyquinoline-8-sulfonamido)phenyl]ethynyl}pyridine-2-carboxylic acid]
100 to 1000 | CS(=O)(=Nc1ccccc1C#Cc1cnc(C(=O)O)c2ccccc12)c1cccc2cccnc12 (centres unmarked) [Compound 448, 4-[2-(2-{[methyl(oxo)(quinolin-8-yl)-λ6-sulfanylidene]amino}phenyl)ethynyl]-isoquinoline-1-carboxylic acid]
1000 to 100000 | CNc1cc(C#Cc2ccccc2NS(=O)(=O)c2ccc(OC)c3cccnc23)cnc1C(=O)N(C)C [Compound 246, 5-{2-[2-(5-methoxyquinoline-8-sulfonamido)phenyl]ethynyl}-N,N-dimethyl-3-(methylamino)pyridine-2-carboxamide]
1000 to 100000 | CCc1ccc2cccnc2c1S(=O)(=O)Nc1ccccc1C#Cc1cnc(C(=O)O)c2ccccc12 [Compound 445, 4-{2-[2-(7-ethylquinoline-8-sulfonamido)phenyl]ethynyl}iso-quinoline-1-carboxylic acid]
100 to 1000 | O=C(O)c1ccc(C#Cc2ccccc2NS(=O)(=O)c2ccc(-n3cccn3)cc2)cn1 [Compound 142, 5-(2-{2-[4-(1H-pyrazol-1-yl)benzenesulfonamido]phenyl}-ethynyl)pyridine-2-carboxylic acid]
100 to 1000 | O=CN(Cc1cccc(Oc2ccccc2)c1)c1ccccc1C#Cc1ccc(C(=O)O)nc1 [Compound 203, 5-[2-(2-{N-[(3-phenoxyphenyl)methyl]-formamido}phenyl)ethynyl]pyridine-2-carboxylic acid]
1000 to 100000 | Cc1cc(S(=O)(=O)Nc2ccccc2C#Cc2ccc(C(=O)O)nc2)c2cc(C)ncc2c1 [Compound 288, 5-{2-[2-(3,7-dimethylisoquinoline-5-sulfonamido)phenyl]ethynyl}pyridine-2-carboxylic acid]
1000 to 100000 | Cc1ccccc1-c1cccc(S(=O)(=O)Nc2ccccc2C#Cc2ccc(C(=O)O)nc2)c1 [Compound 94, 5-[2-(2-{2′-methyl-[1,1′-biphenyl]-3-sulfonamido}phenyl)ethynyl]pyridine-2-carboxylic acid]
10 to 100 | O=C(O)c1ccc(C#Cc2ccccc2NS(=O)(=O)N2CCCC3CCCCC32)cn1 (centres unmarked) [Compound 144, 5-(2-{2-[(decahydroquinoline-1-sulfonyl)amino]phenyl}ethynyl)pyridine-2-carboxylic acid]

IC50 [nM] | Structure (SMILES)
100 to 1000 | O=C(O)c1ccc(C#Cc2ccccc2NS(=O)(=O)C2=Cc3ccccc3CC2)cc1 [Compound 78, 4-{2-[2-(3,4-dihydronaphthalene-2-sulfonamido)phenyl]ethynyl}benzoic acid]
100 to 1000 | COc1ccc(S(=O)(=O)Nc2ccc(F)cc2C#Cc2ccc(C(=O)O)nc2)c2ccccc12 [Compound 37, 5-{2-[5-fluoro-2-(4-methoxynaphthalene-1-sulfonamido)phenyl]ethynyl}pyridine-2-carboxylic acid]
1 to 10 | CNc1cc(C#Cc2ccccc2NS(=O)(=O)c2c(C)ccc3cccnc23)cnc1C(=O)O [Compound 206, 3-(methylamino)-5-{2-[2-(7-methylquinoline-8-sulfonamido)phenyl]-ethynyl}pyridine-2-carboxylic acid]
10 to 100 | COC(=O)c1ccc(C#Cc2ccccc2NS(=O)(=O)c2c(C)ccc3cccnc23)cn1 [Compound 143, methyl 5-{2-[2-(7-methylquinoline-8-sulfonamido)phenyl]ethynyl}pyridine-2-carboxylate]
10 to 100 | CCOc1cc(C(=O)O)ncc1C#Cc1ccccc1NS(=O)(=O)c1ccc(OC)c2cccnc12 [Compound 176, 4-ethoxy-5-{2-[2-(5-methoxyquinoline-8-sulfonamido)phenyl]ethynyl}pyridine-2-carboxylic acid]
10 to 100 | Cc1cc(C)c2cccnc2c1S(=O)(=O)Nc1ccccc1C#Cc1ccc(C(=O)O)nc1 [Compound 381, 5-{2-[2-(5,7-dimethylquinoline-8-sulfonamido)phenyl]ethynyl}pyridine-2-carboxylic acid]
1 to 10 | CNc1cc(C#Cc2cc(Cl)ccc2NS(=O)(=O)c2ccc(OC)c3cccnc23)cnc1C(=O)O [Compound 242, 5-{2-[5-chloro-2-(5-methoxyquinoline-8-sulfonamido)phenyl]ethynyl}-3-(methyl-amino)pyridine-2-carboxylic acid]
100 to 1000 | Cc1ccc2cccnc2c1S(=O)(=O)Nc1ccc(C(C)C)cc1C#Cc1ccc(C(=O)O)nc1 [Compound 416, 5-{2-[2-(7-methylquinoline-8-sulfonamido)-5-(propan-2-yl)phenyl]ethynyl}pyridine-2-carboxylic acid]
1000 to 100000 | COc1cccc(S(=O)(=O)Nc2ccccc2C#Cc2ccc(C(=O)O)c(C)c2)c1 [Compound 9, 4-{2-[2-(3-methoxybenzenesulfonamido)phenyl]-ethynyl}-2-methylbenzoic acid]
1000 to 100000 | O=C(O)c1ccc(C#Cc2ccccc2S(=O)(=O)Nc2cccc3cccnc23)cn1 [Compound 432, 5-(2-{2-[(quinolin-8-yl)sulfamoyl]phenyl}ethynyl)pyridine-2-carboxylic acid]
1 to 10 | COc1cc(C(=O)O)ncc1C#Cc1ccccc1NS(=O)(=O)N1CCC[C@@H]2CCCC[C@H]21 [Compound 221, 5-[2-(2-{[(4a,8a-trans)-decahydro-quinoline-1-sulfonyl]amino}phenyl)-ethynyl]-4-methoxypyridine-2-carboxylic acid]
10 to 100 | CC(C)Oc1ccc(S(=O)(=O)Nc2ccccc2C#Cc2ccc(C(=O)O)nc2)c2ncccc12 [Compound 339, 5-(2-{2-[5-(propan-2-yloxy)quinoline-8-sulfonamido]phenyl}ethynyl)pyridine-2-carboxylic acid]
100 to 1000 | COc1cc(C#Cc2ccccc2NS(=O)(=O)c2ccc(OC)c3cccnc23)ccc1C(=O)O [Compound 230, 2-methoxy-4-{2-[2-(5-methoxyquinoline-8-sulfonamido)phenyl]ethynyl}benzoic acid]
1000 to 100000 | COc1ccc(S(=O)(=O)N(C)c2ccccc2C#Cc2ccc(C(=O)O)nc2)c2ncccc12 [Compound 175, 5-{2-[2-(N-methyl5-methoxyquinoline-8-sulfonamido)phenyl]ethynyl}pyridine-2-carboxylic acid]
100 to 1000 | COc1ccc(S(=O)(=O)Nc2ccccc2C#Cc2ccc(C(=O)O)c(OC)c2)c(C)c1 [Compound 67, 2-methoxy-4-{2-[2-(4-methoxy-2-methylbenzenesulfonamido)phenyl]-ethynyl}benzoic acid]
10 to 100 | CC(C)Oc1ccc(S(=O)(=O)Nc2ccccc2C#Cc2ccc(C(=O)O)nc2)c2ccccc12 [Compound 295, 5-(2-{2-[4-(propan-2-yloxy)naphthalene-1-sulfonamido]phenyl}ethynyl)pyridine-2-carboxylic acid]
100 to 1000 | CC(C)Oc1ccnc2c(S(=O)(=O)Nc3ccccc3C#Cc3ccc(C(=O)O)nc3)cccc12 [Compound 349, 5-(2-{2-[4-(propan-2-yloxy)quinoline-8-sulfonamido]phenyl}ethynyl)pyridine-2-carboxylic acid]
100 to 1000 | COc1ccc(C#Cc2ccc(C(=O)O)nc2)c(NS(=O)(=O)c2ccc(OC)c3cccnc23)c1 [Compound 197, 5-{2-[4-methoxy-2-(5-methoxyquinoline-8-sulfonamido)phenyl]ethynyl}pyridine-2-carboxylic acid]

Structure (SMILES) | IC50 [nM]
Cc1cc(S(=O)(=O)Nc2ccccc2C#Cc2ccc(C(=O)O)nc2)c2ncccc2c1 [Compound 265, 5-[2-(6-Methyl-quinoline-8-sulfonyl-amino)-phenylethynyl]-pyridine-2-carboxylic acid] | 100 to 1000
Cc1ccc(S(=O)(=O)Nc2ccccc2C#Cc2ccc(C(=O)O)nc2)c2ncccc12 [Compound 374, 5-{2-[2-(5-methylquinoline-8-sulfonamido)phenyl]ethynyl}pyridine-2-carboxylic acid] | 100 to 1000
